Source: patent publication US12544421B2, “VDAC inhibitors for treating inflammatory bowel diseases” (THE NATIONAL INSTITUTE FOR BIOTECHNOLOGY IN THE NEGEV LTD., priority 2018, dated 2026)

Tests used:
CT-26 cells and MEFs = experiment: H2O2-induced mtDNA release from cells in culture; format: cell-based, mouse; conditions: 20 μM compound, 100 or 200 μM H2O2, 20 h, CT-26 and MEFs
Experimental: Murine colorectal carcinoma cell line from a BALB/c mouse (CT26) and mouse embryonic fibroblast (MEF) cell lines were grown at 37° C. under an atmosphere of 95% air and 5% CO2 in DMEM supplemented with 10% FBS, 2 mM L-glutamine, 1,000 U/ml penicillin and 1 mg/ml streptomycin.
Cells were seeded (150,000 cells/well) in 6-well culture dishes to 40-60% confluence. After 24 h cells were incubated for 20 h with 100 or 200 μM of H2O2 in the absence or the presence of VBIT-4 and VBIT-12. Cells washed and subjected to mtDNA release as described below. For VDAC1 silencing, CT-26 cells were seeded (150,000 cells/well) in 6-well culture dishes to 40-60% confluence. After 24 h cells were transfected with 75 nM of non-targeting siRNA (si-NT) or siRNA targeting VDAC1 recognizing both human and mouse VDAC1 (si-m/hVDAC1) using the JetPRIME transfection reagent, according to the manufacturers' instructions. Forty-eight (48) h post-transfection with either si-NT or si-m/hVDAC1, cells were incubated for 20 h with 100 μM of H2O2. Cells washed and subject to mtDNA release as described below.
Cells (e.g., CT-26, MFFs) were re-suspended in 170 μl digitonin buffer containing 150 mM NaCl, 50 mM HEPES pH 7.4, and 25 μg/ml digitonin (EMD Millipore Corp). The homogenates are incubated on a rotator for 10 min at room temperature, followed by centrifugation at 16,000 g for 25 min at 4° C. […]

DSS-induced IBD mice [1] = experiment: Dextran sodium sulfate (DSS)-induced colitis / IBD mouse model: weight, survival, colon and cecum length, clinical score, spleen weight; format: in vivo, C57BL/6 mice
[2] = test system: colon of DSS-induced IBD mice; experiment: Histological sections of colon of DSS-induced IBD mice (H&E, anti-VDAC1 immunostaining); format: in vivo, C57BL/6 mice
Excerpt: FIGS. 6A-6D are micrographs of histological sections of DSS-induced IBD in C57BL/6 mice, stained with hematoxylin and eosin (H&E). Scale bar represents 100 μm. (6A) Control; (6B) 2.5% DSS; (6C) DSS+VBIT-4; and (6D) DSS+VBIT-12.
FIGS. 7A-7D are micrographs of histological sections of DSS-induced IBD in C57BL/6 mice highlighting the effects of VBIT-4 and VIBT-12 on the colon wall thickness and lymphatic infiltration thereto. (7A) Control; (7B) 2.5% DSS; (7C) DSS+VBIT-12; and […] DSS+VBIT-4.
FIGS. 8A-8D are micrographs of histological sections of DSS-induced IBD in C57BL/6 mice, immunostained with an anti VDAC-1 specific antibody. (8A) Control; (8B) 2.5% DSS; (8C) 2.5% DSS+VBIT-4; and (8D) 2.5% DSS+VBIT-12.
IBD colons were also found to contain large lymphatic sacks and also experienced high infiltration of inflammatory cells towards the colonic lumen.

DSS-induced IBD mice [3] = experiment: Dextran sodium sulfate (DSS)-induced colitis / IBD mouse model: weight, survival, colon and cecum length, clinical score, spleen weight; format: in vivo, C57BL/6 mice; remark: listed apart in the source
Excerpt: Healthy female, specific pathogen free (SPF) C57BL/6 (H-2b), 6-7 weeks old mice were obtained from Invigo, Israel. Animal housing and care conditions was maintained according to the experimental protocols approved by the Institutional Animal Care and Use Committee. Mice were weighed and examined for health.
Animals were provided ad libitum a commercial rodent diet, and free access to either regular or DSS-containing drinking water for the respective designated test groups, supplied to each cage via polyethylene bottles with stainless steel sipper tubes.
Dextran sodium sulfate (DSS)-induced colitis was used.
All animals were subjected to experimental Colitis induction by providing DSS in the drinking water, continuously supplied ad libitum for 6 days, followed subsequently by 8 days of regular drinking water until study termination on day 14 (FIG. 1A).
Determination of individual body weights of mice was performed before disease induction and thereafter once daily, starting from study day 0 until the time of scheduled euthanasia of survivors on Day 14.
Animals were observed, and clinical signs recorded once daily starting from study day 1 and onwards until the time of scheduled euthanasia. Evaluation of clinical signs was scored according to the grading system listed below.
Immediately after euthanasia, the entire large intestine from the ileo-caecal junction to the anus were removed, weighed and the length of the colon was measured using a ruler.
The Maximal Scores of all mice in each group was be summed, and the MMS calculation was as follows: […]
The mean colon length of each group was calculated, and the percentage of shortening of the colon was calculated as follows: […]
The mean caecum length of each group was calculated, and the percentage of shortening of caecum was calculated as follows: […]

[4] = DSS-induced IBD mice, 20 mg/kg, n=6
[5] = DSS-induced IBD mice, 20 mg/kg, value before the brackets
[6] = DSS-induced IBD mice, 20 mg/kg, value in brackets

## O=C(CC(CO)N1CCN(c2ccc(OC(F)(F)F)cc2)CC1)Nc1ccc(Cl)cc1 (centres unmarked) [VBIT-4, N-(4-chlorophenyl)-4-hydroxy-3-(4-(4-(trifluoromethoxy)phenyl)-piperazin-1-yl)butanamide]
CT-26 cells and MEFs
  Release of mtDNA from cells induced by H2O2: inhibited
DSS-induced IBD mice [1]; 20 mg/kg, value in brackets
  Change (%) of weight, day 8 to day 15: 13.9%
DSS-induced IBD mice [1]; compound 20 mg/kg, day 15
  Weight (gr) day 15: 13.9 gr
[2]; compared to IBD mice
  Colon histology: inflammatory cells and infiltration: fewer inflammatory cells with reduced/no infiltration activity
[2]; compared to IBD mice and non-IBD control
  Colon histology: colon wall thickness / villi: thinner colon walls
DSS-induced IBD mice [3]; 2.5% DSS, 20 mg/kg, n=6
  % Mortality: 33.3%
  died (number of mice): 2
DSS-induced IBD mice [3]; DSS-induced IBD mice
  Body weight at experiment termination versus DSS-induced IBD mice (in words): higher weights
  Survival rate at experiment termination versus DSS-induced IBD mice (in words): increased survival rates
DSS-induced IBD mice [3]; [4]
  Cecum length, mm: 8.7 ± 2.4 mm
  MMS (mean maximal score; stool consistency and rectal bleeding, 0-5): 3.05 ± 0.55
DSS-induced IBD mice [3]; DSS-induced IBD mice, 20 mg/kg, n=6, at termination
  Colon length, mm: 48.00 ± 4.84 mm
DSS-induced IBD mice [3]; [5]
  Change of weight, day 1 to day 8 (absolute): −3.2 gr
  Change of weight, day 8 to day 15 (absolute): 1.7 gr
DSS-induced IBD mice [3]; [6]
  Change (%) of weight, day 1 to day 8: −20.8%
  Colon, % Shortening relative to the DSS-induced control (=100): 73%
DSS-induced IBD mice [3]; DSS-induced IBD mice, 20 mg/kg, versus naive
  Cecum, % Shortening: 33.1%
DSS-induced IBD mice [3]; DSS-induced IBD mice, 20 mg/kg, versus naive, value before the brackets
  Colon, % Shortening: 26.2%
DSS-induced IBD mice [3]; DSS-induced IBD mice, compound 20 mg/kg, day 1
  Weight (gr) day 1: 15.4 gr
DSS-induced IBD mice [3]; DSS-induced IBD mice, compound 20 mg/kg, day 8
  Weight (gr) day 8: 12.2 gr
